Columns and labels:
Type in all cases: cell-based
[1] = test system: synovial sarcoma cell lines (SYO1, Yamato, HS-SY-II, and ASKA); assay: Cell growth (confluency, crystal violet, colony imaging), synovial sarcoma cell lines, Example 2; details: 1 μM or indicated concentrations, day 11 to 23
Experimental: (§1) Cells were treated with DMSO or the BRD9 degrader, Compound 1, at indicated concentrations, and proliferation was monitored from day 7 to day 14 by measuring confluency overtime using an IncuCyte live cell analysis system (FIG. 5). Growth medium and compounds were refreshed every 3-4 days.
(§2) Cells were seeded into 12-well plates and treated with DMSO, 1 μM BRD9 inhibitor, Compound 2 (also known as BI-7273, see Martin et al, J Med Chem. 59(10):4462-4475 (2016); see structure of compound 2 below), or 1 μM BRD9 degrader, Compound 1.
(§3) The number of cells was optimized for each cell line. Growth medium and compounds were refreshed every 3-5 days. SYO1, Yamato, A549, 293T and HS-SY-II cells were fixed and stained at day 11. ASKA cells were fixed and stained at day 23. Staining was done by incubation with crystal violet solution (0.5 g Crystal Violet, 27 ml 37% Formaldehyde, 100 mL 10×PBS, 10 mL Methanol, 863 dH20 to 1 L) for 30 min followed by 3× washes with water and drying the plates for at least 24 h at room temperature. Subsequently plates were scanned on an Odyssey CLx Imaging system (FIG. 6).
(§4) Cells were seeded into 96-well ultra-low cluster plate (Costar, #7007) in 200 μL complete media and treated at day 2 with DMSO, Staurosporin, or BRD9 degrader, Compound 1, at indicated doses (FIG. 3C). Media and compounds were changed every 5 d and cell colonies were imaged at day 14.

[2] = test system: non-synovial control cancer cell lines (293T, A549, G401); assay: Cell growth (confluency, crystal violet, colony imaging), non-synovial control lines, Example 2; details: 1 μM or indicated concentrations
Experimental: as §1, §2, §3, §4

[3] = test system: synovial sarcoma cell lines (SYO1, HS-SY-II, and ASKA); assay: Crystal violet cell growth, synovial sarcoma cell lines, Example 3; details: for inhibition of the growth of the cells: SYO1, HS-SY-II, ASKA, treated daily, stained by day 14
Experimental: (§5) Procedure: Cells were seeded into 6-well or 12-well plates and were treated daily with a BRD9 degrader (Compound 1), a bromo-domain BRD9 binder (Compound 2), E3 ligase binder (lenalidomide), DMSO, or staurosporin (positive control for cell killing), at indicated concentrations. The number of cells was optimized for each cell line. Growth media was refreshed every 5 days. By day 14, medium was removed, cells were washed with PBS, and stained using 500 μL of 0.005% (w/v) crystal violet solution in 25% (v/v) methanol for at least 1 hour at room temperature. Subsequently plates were scanned on an Odyssey CLx Imaging system.

[4] = test system: non-synovial control cancer cell lines (RD, HCT116, and Calu6); assay: Crystal violet cell growth, non-synovial control lines, Example 3; details: treated daily, stained by day 14
Experimental: as §5

[5] = test system: SYO1 cells; assay: Cell cycle analysis (Click-iT Plus EdU flow cytometry); details: 200 nM or 1 μM, 8 or 13 days, compared to DMSO and lenalidomide
Experimental: (§6) Procedure: SYO1 cells were treated for 8 or 13 days with DMSO, a BRD9 degrader (Compound 1) at 200 nM or 1 μM, or an E3 ligase binder (lenalidomide) at 200 nM. Compounds were refreshed every 5 days. Cell cycle analysis was performed using the Click-iT™ Plus EdU Flow Cytometry Assay (Invitrogen). The apoptosis assay was performed using the Annexin V-FITC Apoptosis Detection Kit (Sigma A9210). Assays were performed according to the manufacturer's protocol.

[6] = test system: SYO1 cells; assay: Apoptosis assay (Annexin V-FITC); details: 200 nM or 1 μM, 8 days, compared to DMSO controls
Experimental: as §6

[7] = biological target: T1, Nanoluciferase-BRD9 fusion protein (3×FLAG-NLuc-BRD9) (Homo sapiens, UniProt Q9H8M2); assay: SYO1 BRD9 NanoLuc degradation assay; details: SYO-1 cells expressing 3×FLAG-NLuc-BRD9, 6 hours, top dose 1 μM; read-out: SYO1 BRD9-NanoLuc degradation IC50
T1 construct: expressed in transfected cells
T1 sequence (Q9H8M2 1-597): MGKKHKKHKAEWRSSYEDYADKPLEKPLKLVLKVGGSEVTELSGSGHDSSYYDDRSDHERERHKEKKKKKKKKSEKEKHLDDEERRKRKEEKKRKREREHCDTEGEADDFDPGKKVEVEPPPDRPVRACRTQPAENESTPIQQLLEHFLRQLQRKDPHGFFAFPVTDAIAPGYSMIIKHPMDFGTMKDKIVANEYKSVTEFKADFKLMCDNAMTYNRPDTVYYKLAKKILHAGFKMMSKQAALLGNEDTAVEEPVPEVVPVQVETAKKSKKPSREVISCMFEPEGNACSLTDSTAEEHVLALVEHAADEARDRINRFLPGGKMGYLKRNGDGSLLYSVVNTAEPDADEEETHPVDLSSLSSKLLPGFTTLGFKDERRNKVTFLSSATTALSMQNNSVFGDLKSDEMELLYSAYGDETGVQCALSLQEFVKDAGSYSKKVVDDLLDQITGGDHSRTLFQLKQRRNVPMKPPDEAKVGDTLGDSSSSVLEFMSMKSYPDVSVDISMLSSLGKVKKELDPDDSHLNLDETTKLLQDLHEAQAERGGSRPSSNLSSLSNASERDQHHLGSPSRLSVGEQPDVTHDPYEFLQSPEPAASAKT
Experimental: Procedure: A stable SYO-1 cell line expressing 3×FLAG-NLuc-BRD9 was generated. On day 0 cells were seeded in 30 μL media into each well of 384-well cell culture plates. The seeding density was 8000 cells/well. On day 1, cells were treated with 30 nL DMSO or 30 nL of 3-fold serially DMSO-diluted compounds (10 points in duplicates with 1 μM as final top dose). Subsequently plates were incubated for 6 hours in a standard tissue culture incubator and equilibrated at room temperature for 15 minutes. Nanoluciferase activity was measured by adding 15 μL of freshly prepared Nano-Glo Luciferase Assay Reagent (Promega N1130), shaking the plates for 10 minutes and reading the bioluminescence using an EnVision reader.
Results: The Inhibition % was calculated using the following formula: % Inhibition=100×(LumHC−LumSample)/(LumHC−LumLC). DMSO treated cells are employed as High Control (HC) and 1 μM of a known BRD9 degrader standard treated cells are employed as Low Control (LC).

## COc1cc(-c2cn(C)c(=O)c3cnccc23)cc(OC)c1CN(C)CC(=O)NCCOCCOCCNc1cccc2c1C(=O)N(C1CCC(=O)NC1=O)C2=O (centres unmarked) [Compound 1, dBRD9]
[1]
  inhibition of the growth of the cells: results in inhibition of the growth of the cells
[2]
  inhibition of the growth of the cells: does not result in inhibition of the growth
[3]
  inhibition of the growth of the cells: resulted in inhibition of the growth of the cells
[3]; all synovial cell lines, vs Compound 2 and lenalidomide
  growth inhibition compared with the other treatments: most significant growth inhibition in all synovial cell lines
[4]
  inhibition of the growth of the cells: did not result in inhibition of the growth
[5]
  numbers of cells in the S-phase of the cell cycle: reduced numbers of cells in the S-phase of the cell cycle
[6]
  numbers of early- and late-apoptotic cells: increased numbers of early- and late-apoptotic cells

## COc1cc(-c2cn(C)c(=O)c3cnccc23)cc(OC)c1CN(C)C [Compound 2, BI-7273]
[1]
  inhibition of the growth of the cells: results in inhibition of the growth of the cells
[2]
  inhibition of the growth of the cells: does not result in inhibition of the growth
[3]
  inhibition of the growth of the cells: resulted in inhibition of the growth of the cells
[4]
  inhibition of the growth of the cells: did not result in inhibition of the growth

## COc1cc(C2=CN(C)C(=O)N(C)C2)cc(OC)c1CN1CCC(CCN2CCN(c3ccc4c(c3)C(=O)N(C3CCC(=O)NC3=O)C4)CC2)CC1 (centres unmarked) [Compound D1, 3-(6-[4-[2-(1-[[4-(1,3-dimethyl-2-oxo-4H-pyrimidin-5-yl)-2,6-dimethoxyphenyl]methyl]piperidin-4-yl)ethyl]piperazin-1-yl]-1-oxo-3H-isoindol-2-yl)piperidine-2,6-dione]
[7]
  DC50: < 10 nM

## COc1cc(C2=CN(C)C(=O)N(C)C2)cc(OC)c1CN1CCC(CCN2CCN(c3ccc4c(c3)CN(C3CCC(=O)NC3=O)C4=O)CC2)CC1 (centres unmarked) [Compound D2, 3-(5-[4-[2-(1-[[4-(1,3-dimethyl-2-oxo-4H-pyrimidin-5-yl)-2,6-dimethoxyphenyl]methyl]piperidin-4-yl)ethyl]piperazin-1-yl]-1-oxo-3H-isoindol-2-yl)piperidine-2,6-dione]
[7]
  DC50: < 10 nM

## COc1cc(C2=CN(C)C(=O)N(C)C2)cc(OC)c1CN1CCN(CCC2CCN(c3ccc4c(c3)CN(C3CCC(=O)NC3=O)C4=O)CC2)CC1 (centres unmarked) [Compound D3, 3-(5-[4-[2-(4-[[4-(1,3-dimethyl-2-oxo-4H-pyrimidin-5-yl)-2,6-dimethoxyphenyl]methyl]piperazin-1-yl)ethyl]piperidin-1-yl]-1-oxo-3H-isoindol-2-yl)piperidine-2,6-dione Formic Acid]
[7]
  DC50: < 10 nM

From patent US12590079B2, “Compounds and uses thereof” (FOGHORN THERAPEUTICS INC., priority 2019, dated 2026)
